Assay results published in patent publication US6794409B2, “Use of ERβ-selective ligands for regulating fertility and compounds useful therefor” (priority 2001, dated 2004).
Like-named read-outs stand apart in the source and are kept apart here.

Tests used:
[1] = test system: estrogen receptor preparations from rat prostates; assay: Competitive 3H-estradiol binding, rat prostate cytosol
Description: (§1) In this case, it is assumed that ERβ predominates in the rat prostates over ERα, and ERα predominates in rat uteri over ERβ.

[2] = test system: hERβ; assay: Relative binding affinity to hERβ (Kuiper et al.); design: species or system human; settings: quotient of RBA hERβ / hERα
Description: as §1

[3] = test system: hERβ; settings: cited from earlier work
[4] = test system: estrogen receptor preparations from rat uteri; assay: Competitive 3H-estradiol binding, rat uterus cytosol; settings: 3H-estradiol as ligand, estradiol = 100
Description: as §1

[5] = test system: hypophysectomized immature female Wistar rats; assay: Effect on late folliculogenesis and ovulation in hypophysectomized rats; assay type: in vivo, rat; settings: hypex immature Wistar rats; 0.01, 0.1 and 1 mg/day s.c. for 4 days, then PMSG and hCG; FIG. 3
Method: Intact immature female Wistar rats were hypophysectomized (hypex) on day 24 of age (day 0). The following hormone treatments were initiated six days after surgery:
(§2) (a) hypex rats treated with vehicle (control group) (ethanol/arachisoil: 1+9 [v/v]) only
(b) hypex rats treated with 0.01, 0.1 and 1 mg 17β-estradiol/day
(c) hypex rats treated with 0.01, 0.1 and 1 mg of the ERα-selective compound B
(d) hypex rats treated with 0.01, 0.1 and 1 mg of the […] compound C
Animals were subcutaneously treated once per day for 4 consecutive days with the respective compounds or vehicle (day 6, 7, 8, 9). Number of animals per group were […]. The animals were randomly assigned to the treatment and vehicle (control) group.
One day after the last injection (day 10) animals were subcutaneously injected with 20 IU prgenant mare serum gonadotropin (PMSG). Two days later, at […], 10 IU human Chorionic Gonadotropin (hCG) were injected intraperitoneally in order to induce ovulation. At day 14 animals were weighed and sacrificed by carbon dioxide asphyxiation. The oviducts and ovaries were removed:
The oviducts were flushed with a M-2 medium and the oocytes per animal were counted after enzymatic disassociation from the surrounding cumulus with M-2 medium supplemented with 0.3% hyaluironidase. For each treatment group and control group the mean number of ovulated oocytes were calculated.
The ovaries were excised and weighed. Relative ovarian weights (in milligrams), defined as relative ovarian wet weights, were calculated per 100 g body weight for each animal. For each treatment group and control group the mean relativewet weights were determined.
The one way ANOVA was applied to the data in order to compare treatment group values with the respective control group.

[6] = test system: intact immature female Wistar rats; assay: Effect on ovulation rate after superovulation (PMSG/hCG) of immature rats; assay type: in vivo, rat
Method: Superovulation experiments were carried out in three groups of intact immature female Wistar rats on day 23 of age. Number of animals per group were 5. The animals were randomly assigned to the three groups.
Each animal received a single subcutaneous (s.c.) injection of 20 I.U. pregnant mare's serum gonadotropin (PMSG) at day 0. At the same time (day 0) as well as 24 hours and 48 hours later the animals were s.c. injected with
(a) the vehicle formulation (control group: ethanol/aracisoil: 1+9 [v/v]) (group 1) or
(b) an ERβ- selective antagonist 17-Chloro-17aα-(trifluoromethyl)-17a-homoestra-1,3,5(10)16-tetraene-3,17aβ-diol (compound E) at the dose of 1 mg/kg (group 2) and 10 mg/kg (group 3). 54 hours after the start of the experiment the animals got a single intraperitoneal (i.p.) injection of 10 I.U. human chorion gonadotropin (hCG). The animals were then killed 16 hours after the hCG injection.
The ovaries and oviducts were removed. The ovulated oocyte/cumulus mass was extracted from the oviduct by flushing the oviduct with M-2 medium and the oocytes per animal were counted after enzymatic disassociation from the surrounding cumulus with M-2 medium supplemented with 0.3% hyaluronidase.

[7] = test system: hypophysectomized immature female Wistar rats; assay: Effect of ER-selective ligands on folliculogenesis in hypophysectomized rats; assay type: in vivo, rat; settings: hypex immature Wistar rats
Description: Intact immature female Wistar rats were hypophysectomized (hypex) on day 24 of age (d0). The following hormone treatments were initiated six days after surgery:
as §2
Animals were subcutaneously treated once per day for 4 consecutive days with the respective compounds or vehicle (day 6, 7, 8, 9). Number of animals per group were 5-6. The animals were randomly assigned to the treatment and vehicle (control) group.
One day after the last injection (day 10) animals were weighed and sacrificed by carbon dioxide asphyxiation. The ovaries were excised and weighed. Relative ovarian weights (in milligrams), defined as relative ovarian wet weights, were calculated per 100 g body weight for each animal. For each treatment group and control group the mean relative wet weights were determined. The one way ANOVA was applied to the data in order to compare treatment group values with the respective control group.
For histological evaluation, ovaries were placed in neutral buffered 3.7% formaldehyde solution. The ovaries were then embedded in paraffin, cut into 4 μm transverse sections, and stained with hematoxylin and eosin. Ovarian sections were then evaluated qualitatively for folliculogenesis.

For `C[C@]12CC[C@H]3[C@@H](CC=C4C[C@@H](O)CC[C@@]43C)[C@@H]1CC[C@@H]2O` [5-Androstenediol], the “Rat prost. ER(RBA)” value ([1]; rat prostate cytosol, 3H-estradiol as ligand, estradiol = 100) was 5, the “prost. ER/uterus ER” value ([1]; ratio of RBA rat prostate ER / rat uterus ER) was 50 and the ERβ/ERα [2] was 3. For the same compound, the “hERβ RBA” value [3] was 17 and the “Rat uterus ER(RBA)” value [4] was 0.1.

In the case of `C=C[C@@]12CCc3cc(O)ccc3[C@H]1CC[C@@]1(C)[C@H]2CC[C@@H]1O` [compound C, 8β-Vinyl-1,3,5(10)-estratriene-3,17β-diol], the “number of ovulated oocytes” value [5] is reported as “significantly increase the number of ovulated oocytes” and the ovarian wet weight [5] is reported as “significantly increase”.

For `CC12CCC3c4ccc(O)cc4CCC3C1CC=C(Cl)C2(O)C(F)(F)F` (stereo not drawn) [compound E, 17-Chloro-17aα-(trifluoromethyl)-17a-homoestra-1,3,5(10)16-tetraene-3,17aβ-diol], the “Ovulation rate (ova/rat) [x ± sd]” value ([6]; 1 mg/kg/day × 3 days s.c., group 2) was 11 ± 5.6 ova/rat, the “Ovulation rate (ova/rat) [x ± sd]” value ([6]; 10 mg/kg/day × 3 days s.c., group 3) was 8 ± 7.2 ova/rat and the “Ovulation rate (ova/rat) [x ± sd]” value ([6]; 10 mg/kg/day × 3 days s.c., group 3, listed as ERβ-specific antagonist) was 8.0 ova/rat.

In the case of `C[C@]12CC[C@@H]3c4ccc(O)cc4CC[C@H]3[C@@H]1C[C@@H](O)[C@@H]2O` [Estriol], the “hERβ RBA” value ([3]; relative binding affinity, estradiol = 100) is listed as 21.

In the case of `C[C@]12CC[C@@H]3c4ccc(O)cc4CC[C@H]3[C@@H]1C[C@H]1OC(=O)C[C@]12O` [compound B, 3,17β-Dihydroxy-19-nor-17α-pregna-1,3,5(10)-triene-21,16α-lactone], the “number of ovulated oocytes” value [5] is reported as “not able to significantly stimulate”, the ovarian wet weight [5] is reported as “not able to significantly stimulate” and the ovarian wet weight ([7]; 0.01, 0.1 and 1 mg/day s.c. for 4 days, FIG. 1) is reported as “not able to stimulate ovarian growth”. The “folliculogenesis, histological evaluation of ovaries” value ([7]; s.c. for 4 days, hematoxylin and eosin sections, FIG. 2) was “many small atretic follicles comparable to the vehicle control group”.
